Experimental data taken from patent US20240270809A1, “ORAL GLP RECEPTOR AGONISTS” (priority 2020, published 2024).
Positions of bridges follow the written chain, without caps; N, C: chain ends. Non-standard residues stand in square brackets, D forms with d. Residues, ends and D or L forms follow the SMILES beside them. *: point of attachment. Malonyl(2,2-Me2,histaminyl) = CC(C)(C(=O)NCCc1cnc[nH]1)C(=O)*; Ala(1H-tetrazol-5-yl) = N[C@@H](Cc1nnn[nH]1)C(=O)O; αMePhe(2-F) = C[C@](N)(Cc1ccccc1F)C(=O)O; Nle = CCCC[C@H](N)C(=O)O; Aib = CC(C)(N)C(=O)O

Tests used:
human GLP2 receptor = molecular target: T1, human GLP2 receptor (Homo sapiens, UniProt O95838); experiment: cAMP accumulation assay, functional agonism of human GLP2 receptor; type: cell-based; settings: HEK cells infected with human GLP2 receptor BacMam virus, HTRF cAMP; for Emax: HEK293, read-out: Human GLP-2R agonist cAMP Emax; for EC50: read-out: Human GLP-2R agonist cAMP pEC50 (converted)
T1 construct: expressed in transfected cells; host or cells: HEK cells, BacMam virus transduction
T1 sequence (O95838 1-553): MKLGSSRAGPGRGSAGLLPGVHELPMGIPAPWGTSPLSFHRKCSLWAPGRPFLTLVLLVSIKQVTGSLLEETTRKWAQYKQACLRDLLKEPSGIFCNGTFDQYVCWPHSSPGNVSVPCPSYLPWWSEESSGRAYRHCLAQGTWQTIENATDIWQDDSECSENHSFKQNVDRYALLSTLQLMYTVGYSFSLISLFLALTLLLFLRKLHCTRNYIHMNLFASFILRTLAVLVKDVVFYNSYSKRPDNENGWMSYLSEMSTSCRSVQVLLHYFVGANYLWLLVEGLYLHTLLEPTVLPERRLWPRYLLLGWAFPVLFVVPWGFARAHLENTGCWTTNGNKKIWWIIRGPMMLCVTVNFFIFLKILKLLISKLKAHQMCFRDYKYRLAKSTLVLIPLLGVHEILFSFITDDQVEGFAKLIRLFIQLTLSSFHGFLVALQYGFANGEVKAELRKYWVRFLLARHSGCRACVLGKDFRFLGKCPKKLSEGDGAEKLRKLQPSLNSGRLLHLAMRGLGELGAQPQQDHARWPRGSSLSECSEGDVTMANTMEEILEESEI
Procedure: (§1) CAMP production upon agonist stimulation of human GLP2 or GLP1 receptor was assessed utilizing HiRange cAMP kit (Cisbio). In brief, HEK cells were infected with either human GLP2 or GLP1 receptor BacMam virus for 24 hours and frozen for later use in the assay. […] Cells were prepared in the assay buffer (HBSS (Lonza) supplemented with 0.5 mM IBMX (Tocris)). After 45 min incubation at 37° C., the reaction was stopped by addition of the HTRF detection reagents in the lysis buffer provided in the kit.

human GLP1 receptor = molecular target: T2, human GLP1 receptor (Homo sapiens, UniProt P43220); experiment: cAMP accumulation assay, functional agonism of human GLP1 receptor; type: cell-based; settings: HEK cells infected with human GLP1 receptor BacMam virus, HTRF cAMP; for Emax: HEK293, read-out: Human GLP-1R agonist cAMP Emax; for EC50: read-out: Human GLP-1R agonist cAMP pEC50 (converted)
T2 construct: expressed in transfected cells; host or cells: HEK cells, BacMam virus transduction
T2 sequence (P43220 24-463): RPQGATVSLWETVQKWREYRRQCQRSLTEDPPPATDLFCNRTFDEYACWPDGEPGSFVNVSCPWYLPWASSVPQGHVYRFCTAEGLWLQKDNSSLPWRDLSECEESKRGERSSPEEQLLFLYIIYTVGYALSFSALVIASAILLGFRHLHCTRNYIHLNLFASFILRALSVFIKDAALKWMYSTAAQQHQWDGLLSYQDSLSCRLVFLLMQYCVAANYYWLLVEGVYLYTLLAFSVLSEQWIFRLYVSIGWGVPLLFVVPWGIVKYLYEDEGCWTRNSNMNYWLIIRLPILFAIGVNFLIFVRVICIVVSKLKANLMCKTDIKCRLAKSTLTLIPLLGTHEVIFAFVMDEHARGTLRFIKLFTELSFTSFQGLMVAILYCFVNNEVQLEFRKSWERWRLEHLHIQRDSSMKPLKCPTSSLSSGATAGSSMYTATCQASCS
Procedure: as §1

| SMILES | Emax (human GLP2 receptor) | EC50 (human GLP2 receptor) | Emax (human GLP1 receptor) | EC50 (human GLP1 receptor) |
| --- | --- | --- | --- | --- |
| CCCC[C@H](NC(=O)[C@H](CCC(=O)O)NC(=O)[C@H](CC(=O)O)NC(=O)[C@H](CO)NC(=O)[C@H](Cc1ccccc1)NC(=O)[C@H](CO)NC(=O)CNC(=O)[C@H](CC(=O)O)NC(=O)C(C)(C)NC(=O)[C@@H](N)Cc1c[nH]cn1)C(=O)N[C@H](Cc1ccccc1)C(=O)N[C@H](C(=O)N[C@H](C(=O)N[C@@H](CC(C)C)C(=O)N[C@@H](CC(=O)O)C(=O)N[C@H]1CCCCNC(=O)C[C@@H](C(=O)N[C@@H](CC(=O)O)C(=O)N[C@@H](Cc2ccccc2)C(=O)N[C@H](C(=O)N[C@@H](CC(N)=O)C(=O)N[C@@H](Cc2c[nH]c3ccccc23)C(=O)N[C@@H](CC(C)C)C(=O)N[C@H](C(=O)N[C@@H](CCC(N)=O)C(=O)N[C@H](C(=O)N[C@@H](CCCCN)C(=O)N[C@H](C(=O)N[C@H](C(=O)N[C@@H](CC(=O)O)C(N)=O)[C@@H](C)O)[C@@H](C)CC)[C@@H](C)O)[C@@H](C)CC)[C@@H](C)CC)NC(=O)[C@H](C)NC(=O)[C@H](C)NC(=O)[C@H](CCCCN)NC1=O)[C@@H](C)CC)[C@@H](C)O [Example 103] (H-H[Aib]DGSFSDE[Nle][dF]TILDKKAADDFINWLIQTKITD-NH2; lactam 16-20) | 100% | 0.00158 nM | 97% | 2 nM |
| CCCC[C@H](NC(=O)[C@H](CCC(=O)O)NC(=O)[C@@H]1CC(=O)NCCCC[C@H](NC(=O)[C@H](CC(=O)O)NC(=O)C(C)(C)NC(=O)[C@@H](N)Cc2c[nH]cn2)C(=O)N[C@@H](CO)C(=O)N[C@@H](Cc2ccccc2)C(=O)N[C@@H](CO)C(=O)N1)C(=O)N[C@H](Cc1ccccc1)C(=O)N[C@H]1CCCCNC(=O)C[C@@H](C(=O)N[C@@H](CCCCN)C(=O)N[C@@H](C)C(=O)N[C@@H](C)C(=O)NC(C)(C)C(=O)N[C@@H](CC(=O)O)C(=O)N[C@@H](Cc2ccccc2)C(=O)N[C@H](C(=O)N[C@H]2CCC(=O)NCCCC[C@@H](C(=O)N[C@H]3CCC(=O)NCCCC[C@@H](C(N)=O)NC(=O)[C@H]([C@@H](C)O)NC(=O)[C@H]([C@@H](C)CC)NC(=O)[C@H](CCCCN)NC3=O)NC(=O)[C@H]([C@@H](C)CC)NC(=O)[C@H](CC(C)C)NC(=O)[C@H](Cc3c[nH]c4ccccc34)NC2=O)[C@@H](C)CC)NC(=O)[C@H](CC(=O)O)NC(=O)[C@H](CC(C)C)NC(=O)[C@H]([C@@H](C)CC)NC1=O [Example 47] (H-H[Aib]DKSFSDE[Nle][dF]KILDDKAA[Aib]DFIEWLIKEKITK-NH2; lactam 4-8, 12-16, 24-28, 29-33; N-terminus and C-terminus assumed) | 104% | 0.158 nM | 93.6% | 0.316 nM |
| CCCC[C@@H]1NC(=O)[C@H](CCC(=O)O)NC(=O)[C@@H](NC(=O)[C@H](CO)NC(=O)[C@H](Cc2ccccc2)NC(=O)[C@H](CO)NC(=O)CNC(=O)[C@H](Cc2nn[nH]n2)NC(=O)C(C)(C)C(=O)NCCc2c[nH]cn2)CCCCNC(=O)C[C@@H](C(=O)N[C@H](C(=O)N[C@@H](CC(C)C)C(=O)N[C@@H](CC(=O)O)C(=O)N[C@H]2CCC(=O)NCCCC[C@@H](C(=O)N[C@@H](CC(=O)O)C(=O)N[C@@H](Cc3ccccc3)C(=O)N[C@H](C(=O)N[C@@H](CC(N)=O)C(=O)N[C@@H](Cc3c[nH]c4ccccc34)C(=O)N[C@@H](CC(C)C)C(=O)N[C@H](C(=O)N[C@@H](CCC(N)=O)C(=O)N[C@H](C(=O)N[C@@H](CCCCN)C(=O)N[C@H](C(=O)N[C@H](C(=O)N[C@@H](Cc3ccccc3)C(N)=O)[C@@H](C)O)[C@@H](C)CC)[C@@H](C)O)[C@@H](C)CC)[C@@H](C)CC)NC(=O)[C@H](C)NC(=O)[C@H](C)NC(=O)[C@H](CCCCN)NC2=O)[C@@H](C)CC)NC(=O)[C@@H](Cc2ccccc2)NC1=O [Example 115] ({Malonyl(2,2-Me2,histaminyl)}-[Ala(1H-tetrazol-5-yl)]GSFSKE[Nle][dF]DILDEKAAKDFINWLIQTKITF-NH2; lactam 6-10, 14-18 (inferred); C-terminus assumed) | 104% | 0.02 nM | 92% | 0.501 nM |
| CCCC[C@@H]1NC(=O)[C@H](CCC(=O)O)NC(=O)[C@@H](NC(=O)[C@H](CO)NC(=O)[C@](C)(Cc2ccccc2F)NC(=O)[C@H](CO)NC(=O)[C@@H](C)NC(=O)[C@H](CCC(N)=O)NC(=O)C(C)(C)C(=O)NCCc2c[nH]cn2)CCCCNC(=O)C[C@@H](C(=O)N[C@H](C(=O)N[C@@H](CC(C)C)C(=O)N[C@@H](CC(=O)O)C(=O)N[C@H]2CCC(=O)NCCCC[C@@H](C(=O)N[C@@H](CC(=O)O)C(=O)N[C@@H](Cc3ccccc3)C(=O)N[C@H](C(=O)N[C@H]3CCCCNC(=O)C[C@@H](C(=O)N[C@H]4CCC(=O)NCCCC[C@@H](C(N)=O)NC(=O)[C@H]([C@@H](C)O)NC(=O)[C@H]([C@@H](C)CC)NC(=O)[C@H](CCCCN)NC4=O)NC(=O)[C@H]([C@@H](C)CC)NC(=O)[C@H](CC(C)C)NC(=O)[C@H](Cc4c[nH]c5ccccc45)NC3=O)[C@@H](C)CC)NC(=O)[C@H](C)NC(=O)[C@H](C)NC(=O)[C@H](CCCCN)NC2=O)[C@@H](C)CC)NC(=O)[C@@H](Cc2ccccc2)NC1=O [Example 54] ({Malonyl(2,2-Me2,histaminyl)}-Q[dA]S[αMePhe(2-F)]SKE[Nle][dF]DILDEKAAKDFIKWLIDEKITK-NH2; lactam 6-10, 14-18, 22-26, 27-31 (inferred); C-terminus assumed) | 101% | 0.0316 nM | 88.8% | 0.631 nM |
| CCCC[C@@H]1NC(=O)[C@H](CCC(=O)O)NC(=O)[C@@H](NC(=O)[C@H](CO)NC(=O)[C@H](Cc2ccccc2)NC(=O)[C@H](CO)NC(=O)CNC(=O)[C@H](Cc2nn[nH]n2)NC(=O)C(C)(C)C(=O)NCCc2c[nH]cn2)CCCCNC(=O)C[C@@H](C(=O)N[C@H](C(=O)N[C@@H](CC(C)C)C(=O)N[C@@H](CC(=O)O)C(=O)N[C@H]2CC(=O)NCCCC[C@@H](C(=O)N[C@@H](CC(=O)O)C(=O)N[C@@H](Cc3ccccc3)C(=O)N[C@H](C(=O)N[C@@H](CC(N)=O)C(=O)N[C@@H](Cc3c[nH]c4ccccc34)C(=O)N[C@@H](CC(C)C)C(=O)N[C@H](C(=O)N[C@@H](CCC(N)=O)C(=O)N[C@H](C(=O)N[C@@H](CCCCN)C(=O)N[C@H](C(=O)N[C@H](C(=O)N[C@@H](Cc3ccccc3)C(N)=O)[C@@H](C)O)[C@@H](C)CC)[C@@H](C)O)[C@@H](C)CC)[C@@H](C)CC)NC(=O)[C@H](C)NC(=O)[C@H](C)NC(=O)[C@H](CCCCN)NC2=O)[C@@H](C)CC)NC(=O)[C@@H](Cc2ccccc2)NC1=O [Example 114] ({Malonyl(2,2-Me2,histaminyl)}-[Ala(1H-tetrazol-5-yl)]GSFSKE[Nle][dF]DILDDKAAKDFINWLIQTKITF-NH2; lactam 6-10, 14-18 (inferred); C-terminus assumed) | 102% | 0.02 nM | 89.1% | 3.16 nM |
| CCCC[C@H](NC(=O)[C@H](CCC(=O)O)NC(=O)[C@@H]1CC(=O)NCCCC[C@H](NC(=O)[C@H](CC(=O)O)NC(=O)C(C)(C)NC(=O)[C@@H](N)Cc2c[nH]cn2)C(=O)N[C@@H](CO)C(=O)N[C@@H](Cc2ccccc2)C(=O)N[C@@H](CO)C(=O)N1)C(=O)N[C@H](Cc1ccccc1)C(=O)N[C@H]1CCC(=O)NCCCC[C@@H](C(=O)N[C@@H](CCCCN)C(=O)N[C@@H](C)C(=O)N[C@@H](C)C(=O)NC(C)(C)C(=O)N[C@@H](CC(=O)O)C(=O)N[C@@H](Cc2ccccc2)C(=O)N[C@H](C(=O)N[C@H]2CCC(=O)NCCCC[C@@H](C(=O)N[C@H](C(=O)N[C@@H](CCCCN)C(N)=O)[C@@H](C)O)NC(=O)[C@H]([C@@H](C)CC)NC(=O)[C@H](CC(C)C)NC(=O)[C@H](Cc3c[nH]c4ccccc34)NC2=O)[C@@H](C)CC)NC(=O)[C@H](CC(=O)O)NC(=O)[C@H](CC(C)C)NC(=O)[C@H]([C@@H](C)CC)NC1=O [Example 5] (H-H[Aib]DKSFSDE[Nle][dF]EILDKKAA[Aib]DFIEWLIKTK-NH2; lactam 4-8, 12-16, 24-28 (inferred); N-terminus and C-terminus assumed) | 104% |  | 92.5% |  |
